This is an account of results in patent US8088819B2, “Derivatives of substituted 3-phenyl-1-(phenylthienyl)propan-1-ones and of 3-phenyl-1-(phenylfuranyl) propan-1-ones, preparation and use” (priority 2006, dated 2012).

In data set [1] the target is T1, hPPARgamma (Homo sapiens, UniProt P37231).
T1 construct: expressed in transfected cells; host or cells: COS-7 (monkey kidney fibroblasts)
T1 sequence (P37231 238-503 limits assumed): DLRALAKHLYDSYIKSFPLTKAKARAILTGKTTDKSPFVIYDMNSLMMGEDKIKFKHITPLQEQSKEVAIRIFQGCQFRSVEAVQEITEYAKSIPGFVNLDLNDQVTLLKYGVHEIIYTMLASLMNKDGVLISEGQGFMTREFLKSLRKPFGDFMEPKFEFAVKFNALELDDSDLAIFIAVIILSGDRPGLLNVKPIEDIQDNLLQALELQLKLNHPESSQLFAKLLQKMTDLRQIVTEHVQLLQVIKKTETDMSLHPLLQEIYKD
The data set can be described thus: PPAR activation: Gal4-hPPARγ chimera luciferase transactivation in COS-7 cells, Method 2. The format is cell-based. To be noted: COS-7, 24 h, Method 2; for Emax: maximum percentage response relative to the reference rosiglitazone, read-out: hPPARgamma % max; for EC50: 1% Ultroser, read-out: hPPARgamma EC50. As for the experimental part:
The activation of the PPARs was evaluated in vitro on a line of monkey kidney fibroblasts (COS-7) by measuring the transcriptional activity of chimeras constituted of the DNA binding domain of the Gal4 transcription factor of yeast and the ligand binding domain of the various PPARs.
Only the application of the transfection stage is slightly different. The details are presented below.
(§1) The adherent COS-7 cells are transfected with 40 μg of DNA per 225 cm^2 dish, with a pGal4-PPAR/Gal4(RE)_TkpGL3 ratio of 1/10, in the presence of 10% fetal calf serum. The cells are then detached and seeded in the absence of serum in 384-well plates (2×10^4 cells/well) and incubated for 4 hours at 37° C. The compounds are then diluted in a 96-well plate and transferred to the 384-well plate. Activation with the test compounds is carried out for an additional 24 h at 37° C. in the presence of 1% of Ultroser™ lipid-free synthetic serum (Biosepra). These last 2 stages are automated using a Genesis Freedom 200™ station (Tecan). At the end of the experiment, the cells are lysed and the luciferase activity is determined using the Steady-Lite™ HTS (Perkin Elmer) following the supplier's recommendations.

In data set [2] the test system is target genes of PPARδ in murine myocytes (C2C12). The data set can be described thus: Expression of target genes of PPARδ (PDK4, CPT1b, UCP2, UCP3) in murine myocytes, quantitative RT-PCR. The format is cell-based. As to conditions: murine myocytes in vitro. An excerpt: It is established that regulation of the expression of these genes is directly controlled by PPARδ in this cell type. The more the expression of the genes is increased, the greater the stimulating action of the compound according to the invention on metabolism in the muscle cells.
Cells from the murine cell line C2C12 (obtained from ECACC) are cultivated in DMEM medium (Gibco; 41965-039) with addition of 1% L-glutamine (Gibco; 25030), 1% of penicillin/streptomycin (VWR; BWSTL0022/100) and 10% decomplemented fetal calf serum (FCS. Gibco; 10270-106).
The cells are seeded on 24-well plates at a density of 50·10^3 cells/well. At confluence, the medium is replaced with a differentiating medium (basal medium with addition of 2% of horse serum (Gibco; 26050-088)), then incubated at 37° C. and 5% CO2 for 4 days in order to differentiate them to myocytes.
After 5 days of differentiation, the cells are put in a deprivation medium (basal medium without serum) for 6 hours. The cells are then treated with the compounds according to the invention in the deprivation medium. Compounds 2, 4, 7, 11, 39, 40, 46, 49 and 72 were in dose effect, corresponding to 1×, 10× and 100× their EC50 PPARδ. The compounds according to the invention were dissolved in dimethylsulfoxide (DMSO, Sigma; D5879). The cells were treated for 24 h at 37° C., 5% CO2. The effect of the compounds according to the invention was compared with the effect of DMSO alone.
After treatment, the total RNA is extracted from the cells using the NucleoSpine® 96 RNA kit (Macherey Nagel, Hoerdt, France) following the manufacturer's instructions.
1 μg of total RNA (quantified based on the UV spectrophotometer reading) was then reverse-transcribed to complementary DNA by reaction for 1 hour at 37° C. in a total volume of 30 μl containing buffer 1× (Invitrogen), 1.5 mM of DTT, 0.18 mM of dNTPs (Promega), 200 ng of pdN6 (Amersham), 30 U of RNase inhibitor (Promega) and 1 μl of MMLV-RT (Invitrogen).
The quantitative PCR experiments were carried out using the MyiQ Single-Color Real-Time PCR Detection System (Biorad, Marnes-la-Coquette, France) and were performed using the iQ SYBR Green Supermix kit following the supplier's recommendations, in 96-well plates, on 5 μl of diluted reverse-transcription reaction mixtures with a hybridization temperature of 60° C. Primer pairs specific to the PDK4, CPT1b, UCP2 and UCP3 genes under investigation were used:
The amount of fluorescence emitted is directly proportional to the amount of complementary DNA present at the start of the reaction and amplified during PCR. For each target investigated, a range is produced by successive dilutions of a pool constituted of a few microliters of various reverse-transcription reaction mixtures. The relative expression levels of each target are thus determined using the efficacy curves obtained with the points in the range.
The levels of expression of the genes of interest were then normalized relative to the level of expression of the reference gene 36B4 (whose specific primers are: sense primer: 5′-[…]-3′ (SEQ ID No. 19) and antisense primer: 5′-[…]-3′ (SEQ ID No. 20)). The induction factor, i.e. the ratio of the relative signal (induced by the compound according to the invention) to the mean of the relative values of the control group, was then calculated. The higher this factor, the greater the activating character of the compounds according to the invention with respect to gene expression. The final result is represented as the mean of the induction values in each experimental group.

Data set [3] addresses T2, hPPARalpha (Homo sapiens, UniProt Q07869).
T2 construct: expressed in transfected cells; host or cells: COS-7 (monkey kidney fibroblasts)
T2 sequence (Q07869 239-466 limits assumed): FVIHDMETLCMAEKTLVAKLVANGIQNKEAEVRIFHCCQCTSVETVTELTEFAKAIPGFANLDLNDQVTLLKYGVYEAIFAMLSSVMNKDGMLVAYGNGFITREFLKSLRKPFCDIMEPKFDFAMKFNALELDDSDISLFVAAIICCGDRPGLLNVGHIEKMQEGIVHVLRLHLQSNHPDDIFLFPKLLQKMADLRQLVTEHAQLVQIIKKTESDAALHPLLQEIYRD
Briefly: PPAR activation: Gal4-hPPARα chimera luciferase transactivation in COS-7 cells, Method 2. The format is cell-based. To be noted: COS-7, 24 h; for EC50: 1% Ultroser; for Emax: maximum percentage response relative to the reference phenofibric acid, read-out: hPPARalpha % max. As for the experimental part:
(§2) The activation of the PPARs was evaluated in vitro on a line of monkey kidney fibroblasts (COS-7) by measuring the transcriptional activity of chimeras constituted of the DNA binding domain of the Gal4 transcription factor of yeast and the ligand binding domain of the various PPARs. The compounds were tested at doses between 10^−5 and […] on the chimeras Gal4-PPARα, γ or δ, and the corresponding EC50 values were determined.
(§3) The principle, the cells and the plasmids used for example 5 were also employed in this example. Only the application of the transfection stage is slightly different. The details are presented below.
as §1

The target of data set [4] is T3, hPPARdelta (Homo sapiens, UniProt Q03181).
T3 construct: expressed in transfected cells; host or cells: COS-7 (monkey kidney fibroblasts)
T3 sequence (Q03181 211-439 limits assumed): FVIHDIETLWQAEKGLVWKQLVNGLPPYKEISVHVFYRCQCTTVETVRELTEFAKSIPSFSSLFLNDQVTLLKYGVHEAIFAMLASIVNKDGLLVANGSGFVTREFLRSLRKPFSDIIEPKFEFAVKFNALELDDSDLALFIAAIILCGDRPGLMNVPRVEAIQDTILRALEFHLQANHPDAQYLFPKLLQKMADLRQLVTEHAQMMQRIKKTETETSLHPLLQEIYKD
Briefly: PPAR activation: Gal4-hPPARδ chimera luciferase transactivation in COS-7 cells, Method 2. To be noted: COS-7, 24 h; for EC50: 1% Ultroser; for Emax: maximum percentage response relative to the reference GW501516, read-out: hPPARdelta % max. The format is cell-based. Here is the method:
as §2, §3, §1

Data set [5] deals with T2, hPPARalpha. Briefly: PPAR activation: Gal4-hPPARα chimera luciferase transactivation in COS-7 cells, Method 1. It is filed as cell-based. As to conditions: COS-7, 24 h; for Emax: maximum percentage response relative to the reference phenofibric acid, read-out: hPPARalpha % max. Here is the method:
as §2
(§4) The COS-7 cells were obtained from the ATCC and were cultivated in DMEM medium supplemented with 10% (v/v) of fetal calf serum, 100 U/ml of penicillin (Gibco, Paisley, UK) and 2 mM of L-glutamine (Gibco, Paisley, UK). The cells were incubated at 37° C. in a humid atmosphere containing 5% CO2.
(§5) The plasmids Gal4(RE)_TkpGL3, pGal4-hPPARα, pGal4-hPPARγ, pGal4-hPPARδ and pGal4-φ are described in the literature (Raspe E et al., 1999). The constructs pGal4-hPPARα, pGal4-hPPARγ and pGal4-hPPARδ were obtained by cloning DNA fragments amplified by PCR corresponding to the DEF domains of the human nuclear receptors PPARα, PPARγ and PPARδ in the pGal4-φ vector.
(§6) The COS-7 cells in suspension were transfected with 150 ng of DNA per well, with a pGal4-PPAR/Gal4(RE)_TkpGL3 ratio of 1/10, in the presence of 10% fetal calf serum. The cells were seeded in 96-well plates (4×10^4 cells/well) and then incubated at 37° C. for 24 hours. Activation with the test compounds is carried out for 24 h at 37° C. in serum-free medium. At the end of the experiment, the cells were lysed and the luciferase activity was determined using the Steady-Lite™ HTS (Perkin Elmer) following the supplier's recommendations.

In data set [6] the target is T1, hPPARgamma. Briefly: PPAR activation: Gal4-hPPARγ chimera luciferase transactivation in COS-7 cells, Method 1. As to conditions: COS-7, 24 h; for Emax: maximum percentage response relative to the reference rosiglitazone, read-out: hPPARgamma % max. It is filed as cell-based. Here is the method: as §2, §4, §5, §6
For data set [7], the target named is T3, hPPARdelta. Briefly: PPAR activation: Gal4-hPPARδ chimera luciferase transactivation in COS-7 cells, Method 1. To be noted: COS-7, 24 h; for Emax: maximum percentage response relative to the reference GW501516, read-out: hPPARdelta % max. It is filed as cell-based. Here is the method: as §2, §4, §5, §6

As for `CC(C)(Oc1ccc(CCC(OCc2cccnc2)c2ccc(-c3ccc(C(F)(F)F)cc3)s2)c(Cl)c1Cl)C(=O)O` (centres unmarked) [Compound 39, 2-(2,3-dichloro-4-(3-(pyridin-3-ylmethoxy)-3-(5-(4-(trifluoromethyl)phenyl)thien-2-yl)propyl)phenoxy)-2-methylpropanoic acid], the melting point is 75 to 77 °C. On hPPARgamma [1], the Emax turned out to be 52% and the EC50 came to 550 nM. Further, the “expression of genes involved in carbohydrate and lipid metabolism and in thermoregulation” value (from here on “expression of genes involved”) in data set [2] is on record as “stimulating effects”. In addition, on hPPARalpha [3], the EC50 is 1010 nM and the Emax stood at 36%. Further, at hPPARdelta [4], it took 6 nM to reach a half-maximal effect (EC50) and the Emax amounted to 90%.

On to `COC(CCc1ccc(OC(C)(C)C(=O)O)c(Cl)c1Cl)c1ccc(-c2ccc(C(F)(F)F)cc2)o1` (centres unmarked) [Compound 72, 2-(2,3-dichloro-4-(3-methoxy-3-(5-(4-(trifluoromethyl)phenyl)fur-2-yl)propyl)phenoxy)-2-methylpropanoic acid], for which the Emax on hPPARgamma [1] amounted to 70%; on hPPARalpha [3] it was 59%; on hPPARdelta [4], 97%. Besides, the values for the EC50 on hPPARgamma [1] and at hPPARalpha [3] were 160 nM and 270 nM, respectively. The “expression of genes involved” value in data set [2] is reported as “stimulating effects”.

`CC(C)(Oc1ccc(CCC(=O)c2ccc(-c3ccc(C(F)(F)F)cc3)s2)c(F)c1F)C(=O)O` [Compound 46, 2-(2,3-difluoro-4-(3-oxo-3-(5-(4-(trifluoromethyl)phenyl)thien-2-yl)propyl)phenoxy)-2-methylpropanoic acid] showed a melting point of 165 to 166 °C. Besides, the “expression of genes involved” value in data set [2] is recorded as “stimulating effects”. Further, at hPPARalpha [5], the EC50 amounted to 11 nM and the Emax came out at 58%. For the same compound, on hPPARgamma [6], the Emax stood at 30%. Besides, on hPPARdelta [7], the EC50 is 18 nM and the Emax was determined as 105%.

On to `CC(C)(Oc1ccc(CCC(OCc2ccccc2)c2ccc(-c3ccc(C(F)(F)F)cc3)s2)c(F)c1F)C(=O)O` (centres unmarked) [Compound 63, 2-(4-(3-(benzyloxy)-3-(5-(4-(trifluoromethyl)phenyl)thien-2-yl)-propyl)-2,3-difluorophenoxy)-2-methylpropanoic acid], for which the Emax on hPPARgamma [1] came to 44%; at hPPARalpha [3], 46%; on hPPARdelta [4] it was 97%. For the same compound, the concentration for a half-maximal effect (EC50) was found to be 7910 nM on hPPARgamma [1], 4210 nM at hPPARalpha [3] and 180 nM on hPPARdelta [4]. In data set [2], the “expression of genes involved” value was “stimulating effects”.

On to `Cc1cc(CCC(=O)c2ccc(-c3ccc(C(F)(F)F)cc3)s2)cc(C)c1OC(C)(C)C(=O)O` [Compound 48, 2-(2,6-dimethyl-4-(3-oxo-3-(5-(4-(trifluoromethyl)phenyl)thien-2-yl)propyl)phenoxy)-2-methylpropanoic acid], for which the melting point fell in the range of 157 to 158 °C. In addition, in data set [2], the “expression of genes involved” value is “stimulating effects”. The Emax at hPPARalpha [5] amounted to 49%. Also, at hPPARgamma [6], a half-maximal effect (EC50) was put at 560 nM and the Emax was 85%. Also, at hPPARdelta [7], a half-maximal effect (EC50) was put at 6 nM and the Emax amounted to 86%.
